Reference: patent US20060167115A1, “Compositions for the preservation of timber” (priority 2003, published 2006)

Key:
Poria placenta = assay: Biological screening test (modified EN 113) of TBBA homologues; type: cell-based; conditions: 8 weeks exposure; for Protective Effect (retention of the active ingredient in the wood): waterborne
Experimental: (§1) The following fungi were employed: Coniophora puteana (Brown rot fungus) and Poria placenta (Brown rot fungus). The following preservatives were tested: TBBF (waterborne), TBBE (waterborne), TBBZ (waterborne) and TBBS (waterborne).
(§2) Five concentrations of each preservative were tested: 3.0%, 2.0%, 1.0%, 0.1% and 0.05% (w/w). All wood blocks were of Scots pine sapwood (Pinus sylvestris) with a volume of 1 cm^3 (10 mm×10 mm×10 mm). Five replicates were used for each test specimen type and six virulence control specimens for each fungus and for each preservative were used as follows: • Treated test specimens: 2 (fungi)×5 (preservative concentrations)×1 (preservative)×5 (replicates)=50 test blocks • Untreated test specimens (for exposure alongside […] test blocks): 2 (fungi)×5 (preservative concentrations)×1 (preservative)×5 (replicates)=50 test blocks • Treated check test specimens: 1 (preservative)×5 (concentrations)×5 (replicates)=25 blocks
(§3) For all actives/preservatives in the test: • Virulence control specimens: 2 (fungi)×6 (replicates)=12 test blocks
(§4) After block treatments were completed, all the blocks were sterilized using ionizing radiation according to the conditions set out in European standard EN 113. The incubation period for the test (length of block exposure to the chosen basidiomycete fungi) was 8 weeks.
(§5) Weight changes for particular waterlogged specimens, when these were clearly unrepresentative of a group, were not included in the mean figures presented.

Coniophora puteana = assay: as above; type: cell-based; conditions: 8 weeks exposure; for Protective Effect (retention of the active ingredient in the wood): waterborne
Experimental: as §1, §2, §3, §4, §5

[1] = TBBS waterborne 0.05% w/w, retention 0.4 kg/m^3
[2] = TBBS waterborne 0.1% w/w, retention 0.8 kg/m^3
[3] = TBBZ waterborne 0.05% w/w, retention 0.4 kg/m^3, some waterlogging
[4] = TBBF waterborne 0.05% w/w, retention 0.4 kg/m^3
[5] = TBBE waterborne 0.05% w/w, retention 0.4 kg/m^3

With `O=S(=O)(c1cc(Br)c(O)c(Br)c1)c1cc(Br)c(O)c(Br)c1` [TBBS, 4,4′-Sulfonyldi(2,6-dibromophenol)] as the compound, how does the “Corrected mean loss in mass (%)” value (Poria placenta; [1]) read?
Its value is “No Decay”.

And the “Corrected mean loss in mass (%)” value (Poria placenta; [2])?
The value was “No Decay”.

And the “Corrected mean loss in mass (%)” value (Poria placenta; TBBS waterborne 1.0% w/w, retention 7.9 kg/m^3)?
Its value is “No Decay”.

And the “Corrected mean loss in mass (%)” value (Poria placenta; TBBS waterborne 2.0% w/w, retention 15.3 kg/m^3)?
Its value is “No Decay”.

And the “Corrected mean loss in mass (%)” value (Poria placenta; TBBS waterborne 3.0% w/w, retention 25.0 kg/m^3)?
The value was “No Decay”.

And the “Protective Effect (retention of the active ingredient in the wood)” value (“Protective Effect” below) (Poria placenta)?
The value was 0.8-7.9 kg/m^3.

And the “Corrected mean loss in mass (%)” value (Coniophora puteana; [1])?
Its value is 35.02 (6.61) %.

What about the “Corrected mean loss in mass (%)” value (Coniophora puteana; [2]) of the same compound?
The value was 35.49 (4.92) %.

What about the “Corrected mean loss in mass (%)” value (Coniophora puteana; TBBS waterborne 1.0% w/w, retention 7.6 kg/m^3) of the same compound?
Its value is “No Decay”.

And the “Corrected mean loss in mass (%)” value (Coniophora puteana; TBBS waterborne 2.0% w/w, retention 16.1 kg/m^3)?
The value was “No Decay”.

And the “Corrected mean loss in mass (%)” value (Coniophora puteana; TBBS waterborne 3.0% w/w, retention 20.2 kg/m^3)?
Its value is “No Decay”.

And the “Protective Effect” value (Coniophora puteana)?
The value was 0.8-7.6 kg/m^3.

For `Oc1c(Br)cc(C2(c3cc(Br)c(O)c(Br)c3)CCCCC2)cc1Br` [TBBZ, 4,4′-Cyclohexylidenebis(2,6-dibromophenol)], which “Corrected mean loss in mass (%)” value (Poria placenta; [3]) is on record?
The value was 0.94 (3.19) (W) %.

And the “Corrected mean loss in mass (%)” value (Poria placenta; TBBZ waterborne 0.1% w/w, retention 0.8 kg/m^3)?
Its value is 33.47 (15.74) %.

And the “Corrected mean loss in mass (%)” value (Poria placenta; TBBZ waterborne 1.0% w/w, retention 5.9 kg/m^3)?
Its value is “No Decay”.

And the “Corrected mean loss in mass (%)” value (Poria placenta; TBBZ waterborne 2.0% w/w, retention 11.6 kg/m^3)?
The value was “No Decay”.

And the “Corrected mean loss in mass (%)” value (Poria placenta; TBBZ waterborne 3.0% w/w, retention 18.6 kg/m^3)?
The value was “No Decay”.

What about the “Protective Effect” value (Poria placenta) of the same compound?
Its value is 0.8-5.9 kg/m^3.

What about the “Corrected mean loss in mass (%)” value (Coniophora puteana; [3]) of the same compound?
Its value is 33.57 (7.59) (W) %.

What about the “Corrected mean loss in mass (%)” value (Coniophora puteana; TBBZ waterborne 1.0% w/w, retention 6.8 kg/m^3) of the same compound?
The value was 14.30 (—) %.

And the “Corrected mean loss in mass (%)” value (Coniophora puteana; TBBZ waterborne 2.0% w/w, retention 11.8 kg/m^3)?
Its value is “No Decay”.

What about the “Corrected mean loss in mass (%)” value (Coniophora puteana; TBBZ waterborne 3.0% w/w, retention 17.6 kg/m^3) of the same compound?
The value was “No Decay”.

And the “Protective Effect” value (Coniophora puteana)?
Its value is 0.7-6.8 kg/m^3.

With `Oc1c(Br)cc(Cc2cc(Br)c(O)c(Br)c2)cc1Br` [TBBF, Bis(4-hydroxy-3,5-dibromophenyl)methane] as the compound, how does the “Corrected mean loss in mass (%)” value (Poria placenta; [4]) read?
Its value is 24.20 (9.63) %.

And the “Corrected mean loss in mass (%)” value (Poria placenta; TBBF waterborne 0.1% w/w, retention 0.8 kg/m^3)?
Its value is 20.90 (0.23) %.

What about the “Corrected mean loss in mass (%)” value (Poria placenta; TBBF waterborne 1.0% w/w, retention 7.7 kg/m^3) of the same compound?
Its value is “No Decay”.

What about the “Corrected mean loss in mass (%)” value (Poria placenta; TBBF waterborne 2.0% w/w, retention 15.7 kg/m^3) of the same compound?
The value was “No Decay”.

And the “Corrected mean loss in mass (%)” value (Poria placenta; TBBF waterborne 3.0% w/w, retention 20.8 kg/m^3)?
The value was “No Decay”.

What about the “Protective Effect” value (Poria placenta) of the same compound?
Its value is 0.8-7.7 kg/m^3.

And the “Corrected mean loss in mass (%)” value (Coniophora puteana; [4])?
The value was 26.87 (7.38) %.

What about the “Corrected mean loss in mass (%)” value (Coniophora puteana; TBBF waterborne 0.1% w/w, retention 0.8 kg/m^3, some waterlogging) of the same compound?
The value was 24.49 (2.12) (W) %.

And the “Corrected mean loss in mass (%)” value (Coniophora puteana; TBBF waterborne 1.0% w/w, retention 7.9 kg/m^3)?
Its value is “No Decay”.

And the “Corrected mean loss in mass (%)” value (Coniophora puteana; TBBF waterborne 2.0% w/w, retention 15.1 kg/m^3)?
Its value is “No Decay”.

What about the “Corrected mean loss in mass (%)” value (Coniophora puteana; TBBF waterborne 3.0% w/w, retention 23.1 kg/m^3) of the same compound?
The value was “No Decay”.

What about the “Protective Effect” value (Coniophora puteana) of the same compound?
The value was 0.8-7.9 kg/m^3.

How did the “Corrected mean loss in mass (%)” value (Poria placenta; [5]) turn out when `CC(c1cc(Br)c(O)c(Br)c1)c1cc(Br)c(O)c(Br)c1` [TBBE, 4,4′-Ethylidenebis(2,6-dibromophenol)] was run?
The value was “No Decay (0.89)”.

What about the “Corrected mean loss in mass (%)” value (Poria placenta; TBBE waterborne 0.1% w/w, retention 0.8 kg/m^3) of the same compound?
The value was 28.67 (14.13) %.

What about the “Corrected mean loss in mass (%)” value (Poria placenta; TBBE waterborne 1.0% w/w, retention 8.3 kg/m^3, some waterlogging) of the same compound?
The value was “No Decay (W)”.

And the “Corrected mean loss in mass (%)” value (Poria placenta; TBBE waterborne 2.0% w/w, retention 14.4 kg/m^3, some waterlogging)?
Its value is “No Decay (W)”.

And the “Corrected mean loss in mass (%)” value (Poria placenta; TBBE waterborne 3.0% w/w, retention 24.6 kg/m^3)?
Its value is “No Decay”.

What about the “Protective Effect” value (Poria placenta) of the same compound?
Its value is 0.8-8.3 kg/m^3.

What about the “Corrected mean loss in mass (%)” value (Coniophora puteana; [5]) of the same compound?
Its value is 22.96 (4.81) %.

And the “Corrected mean loss in mass (%)” value (Coniophora puteana; TBBE waterborne 0.1% w/w, retention 0.7 kg/m^3)?
Its value is 26.57 (2.99) %.

What about the “Corrected mean loss in mass (%)” value (Coniophora puteana; TBBE waterborne 1.0% w/w, retention 7.9 kg/m^3) of the same compound?
The value was “No Decay”.

And the “Corrected mean loss in mass (%)” value (Coniophora puteana; TBBE waterborne 2.0% w/w, retention 14.7 kg/m^3)?
Its value is “No Decay”.

What about the “Corrected mean loss in mass (%)” value (Coniophora puteana; TBBE waterborne 3.0% w/w, retention 24.7 kg/m^3) of the same compound?
The value was “No Decay”.

And the “Protective Effect” value (Coniophora puteana)?
Its value is 0.7-7.9 kg/m^3.
